In patent US20260327214A1, “1,3,4-OXADIAZOLE DERIVATIVE COMPOUNDS AS HISTONE DEACETYLASE 6 INHIBITOR, AND USES THEREOF” (CHONG KUN DANG PHARMACEUTICAL CORP., priority 2022, published 2026):

Assays:
[1] = target: T1, human recombinant HDAC6 (Homo sapiens, UniProt Q9UBN7); assay: HDAC6 enzyme activity inhibition test (HDAC Fluorometric Drug Discovery Kit); type: biochemical; conditions: for HDAC6 selectivity (fold): HDAC6 over HDAC1; for IC50: human recombinant HDAC6, same protocol as HDAC1
T1 construct: purchased Calbiochem 382180
T1 sequence (Q9UBN7 1-1215): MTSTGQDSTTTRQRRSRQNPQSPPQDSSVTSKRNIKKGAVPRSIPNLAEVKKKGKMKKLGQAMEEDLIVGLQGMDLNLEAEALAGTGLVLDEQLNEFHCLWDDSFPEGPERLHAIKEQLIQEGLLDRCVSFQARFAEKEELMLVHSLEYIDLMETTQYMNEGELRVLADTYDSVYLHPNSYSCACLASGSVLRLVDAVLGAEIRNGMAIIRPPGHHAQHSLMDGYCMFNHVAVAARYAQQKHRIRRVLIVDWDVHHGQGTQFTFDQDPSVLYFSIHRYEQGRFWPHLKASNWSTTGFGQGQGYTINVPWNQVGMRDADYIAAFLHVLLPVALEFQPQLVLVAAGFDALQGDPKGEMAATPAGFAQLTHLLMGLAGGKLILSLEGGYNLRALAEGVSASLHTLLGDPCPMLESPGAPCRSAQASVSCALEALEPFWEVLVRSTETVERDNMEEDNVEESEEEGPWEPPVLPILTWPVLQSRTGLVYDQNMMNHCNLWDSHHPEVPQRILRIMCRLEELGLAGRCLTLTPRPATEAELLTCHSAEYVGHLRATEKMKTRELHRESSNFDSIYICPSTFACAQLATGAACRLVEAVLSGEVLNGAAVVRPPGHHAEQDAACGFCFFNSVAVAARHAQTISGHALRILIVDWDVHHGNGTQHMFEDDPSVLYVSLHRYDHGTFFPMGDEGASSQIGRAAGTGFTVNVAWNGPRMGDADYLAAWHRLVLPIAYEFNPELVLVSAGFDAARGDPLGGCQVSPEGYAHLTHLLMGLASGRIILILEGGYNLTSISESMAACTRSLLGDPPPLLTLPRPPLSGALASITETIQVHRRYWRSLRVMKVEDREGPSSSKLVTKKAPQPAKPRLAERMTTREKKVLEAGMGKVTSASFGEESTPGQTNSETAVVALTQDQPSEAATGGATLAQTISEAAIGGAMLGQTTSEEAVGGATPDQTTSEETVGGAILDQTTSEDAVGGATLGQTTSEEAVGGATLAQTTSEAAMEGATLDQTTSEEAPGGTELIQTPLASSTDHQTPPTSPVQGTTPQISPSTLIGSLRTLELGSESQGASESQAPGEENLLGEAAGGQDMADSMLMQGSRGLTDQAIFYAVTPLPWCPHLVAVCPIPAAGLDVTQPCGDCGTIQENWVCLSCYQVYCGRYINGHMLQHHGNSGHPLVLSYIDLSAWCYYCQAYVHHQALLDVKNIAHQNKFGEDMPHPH
Description: (§1) The following experiment was conducted to confirm the HDAC6 selectivity of the compound represented by Chemical Formula I of the present invention through the HDAC1 and HDAC6 enzyme activity inhibition test.
(§2) HDAC enzyme activity was measured using HDAC Fluorometric Drug Discovery Kit (BML-AK511, 516) manufactured by Enzo Life Science. For the HDAC1 enzyme activity test, human recombinant HDAC1 (BML-SE456) was used as an enzyme source and Fluor de Lys-®-″SIRT1 (BNL-KI177) was used as a substrate. The 5-fold diluted compound was dispensed in a 96-well plate, 0.3 μg of enzyme and 10 μM substrate were added to each well and reacted at 30° C. for 60 minutes, and Fluor de Lys® Developer II(BML-KI176) was added and reacted for 30 minutes to complete the reaction. Then, the fluorescence value (Ex 360, Em 460) was measured using a multiplate reader (Flexstation 3, Molecular Device). The HDAC6 enzyme was tested using the same protocol as the HDAC1 enzyme activity test method employing human recombinant HDAC6 (382180) from Calbiochem. For the final result, each […] value was calculated using the GraphPad Prism 4.0 program.

[2] = target: T2, human recombinant HDAC1 (Homo sapiens, UniProt Q13547); assay: HDAC1 enzyme activity inhibition test (HDAC Fluorometric Drug Discovery Kit); type: biochemical; conditions: 30° C., 60 minutes, 10 μM substrate
T2 construct: purchased Enzo Life Science BML-SE456
Description: as §1, §2

T2 sequence (Q13547 whole entry): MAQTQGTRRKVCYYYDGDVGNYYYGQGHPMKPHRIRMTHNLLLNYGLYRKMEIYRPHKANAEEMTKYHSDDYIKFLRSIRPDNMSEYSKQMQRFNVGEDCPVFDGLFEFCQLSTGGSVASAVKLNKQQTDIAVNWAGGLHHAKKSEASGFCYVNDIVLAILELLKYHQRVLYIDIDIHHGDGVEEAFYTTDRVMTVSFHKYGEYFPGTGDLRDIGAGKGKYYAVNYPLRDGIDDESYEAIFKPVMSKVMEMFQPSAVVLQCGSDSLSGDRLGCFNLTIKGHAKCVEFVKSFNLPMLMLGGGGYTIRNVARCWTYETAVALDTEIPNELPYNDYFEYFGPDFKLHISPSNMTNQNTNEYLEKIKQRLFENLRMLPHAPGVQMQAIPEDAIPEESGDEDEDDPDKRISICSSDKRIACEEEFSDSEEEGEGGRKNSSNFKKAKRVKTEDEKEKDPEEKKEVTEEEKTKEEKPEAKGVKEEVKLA

Row | HDAC6 selectivity (fold) [1] [fold] | IC50 [1] [nM] | IC50 [2] [nM] | Compound
1 | 511 | 97.8 | > 50000 | FC(F)c1nnc(-c2ccc(Cn3nc(-c4cccc(CN5CCOCC5)c4)oc3=S)nc2)o1 [Compound 99, 3-[[5-[5-(difluoromethyl)-1,3,4-oxadiazol-2-yl]-2-pyridyl]methyl]-5-[3-(morpholinomethyl)phenyl]-1,3,4-oxadiazol-2-thione]
2 | 750 | 66.7 | > 50000 | Fc1cc(-c2nnc(C(F)F)o2)cnc1Cn1nc(-c2ccc(CN3CCC3)s2)oc1=S [Compound 130, 5-[5-(azetidine-1-ylmethyl)-2-thienyl]-3-[[5-[5-(difluoromethyl)-1,3,4-oxadiazol-2-yl]-3-fluoro-2-pyridyl]methyl]-1,3,4-oxadiazol-2-thione]
3 | 742 | 67.4 | > 50000 | Fc1cc(-c2nnc(C(F)F)o2)cnc1Cn1nc(-c2cccc(CN3CCC3)c2)oc1=S [Compound 118, 5-[3-(azetidine-1-ylmethyl)phenyl]-3-[[5-[5-(difluoromethyl)-1,3,4-oxadiazol-2-yl]-3-fluoro-2-pyridyl]methyl]-1,3,4-oxadiazol-2-thione]
4 | 510 | 98 | > 50000 | O=C1OCC(c2ccccc2)=NN1Cc1ncc(-c2nnc(C(F)F)o2)cc1F [Compound 71, 3-[[5-[5-(difluoromethyl)-1,3,4-oxadiazol-2-yl]-3-fluoro-2-pyridyl]methyl]-5-phenyl-6H-1,3,4-oxadiazin-2-one]
5 | 422 | 118 | > 50000 | O=c1sc(-c2ccc(C3CCN(C4COC4)CC3)cc2)nn1Cc1ccc(-c2nnc(C(F)F)o2)cn1 [Compound 56, 3-[[5-[5-(difluoromethyl)-1,3,4-oxadiazol-2-yl]-2-pyridyl]methyl]-5-[4-[1-(oxetane-3-yl)-4-piperidyl]phenyl]-1,3,4-thiadiazol-2-one]
6 | 589 | 84.9 | > 50000 | O=c1oc(-c2cccs2)nn1Cc1ccc(-c2nnc(C(F)F)o2)cn1 [Compound 5, 3-[[5-[5-(difluoromethyl)-1,3,4-oxadiazol-2-yl]-2-pyridyl]methyl]-5-(2-thienyl)-1,3,4-oxadiazol-2-one]
7 | 760 | 65.8 | > 50000 | FC(F)c1nnc(-c2ccc(Cn3nc(-c4cccc(CN5CCCC5)c4)oc3=S)nc2)o1 [Compound 86, 3-[[5-[5-(difluoromethyl)-1,3,4-oxadiazol-2-yl]-2-pyridyl]methyl]-5-[3-(pyrrolidin-1-ylmethyl)phenyl]-1,3,4-oxadiazol-2-thione]
8 | 503 | 99.4 | > 50000 | O=c1oc(-c2cccc(C3CCN(C4COC4)CC3)c2F)nn1Cc1ccc(-c2nnc(C(F)F)o2)cn1 [Compound 26, 3-[[5-[5-(difluoromethyl)-1,3,4-oxadiazol-2-yl]-2-pyridyl]methyl]-5-[2-fluoro-3-[1-(oxetan-3-yl)-4-piperidyl]phenyl]-1,3,4-oxadiazol-2-one]
9 | 977 | 51.2 | > 50000 | CN1CCN(c2nccc(-c3nn(Cc4ccc(-c5nnc(C(F)F)o5)cn4)c(=S)o3)n2)CC1 [Compound 126, 3-[[5-[5-(difluoromethyl)-1,3,4-oxadiazol-2-yl]-2-pyridyl]methyl]-5-[2-(4-methylpiperazin-1-yl)pyrimidin-4-yl]-1,3,4-oxadiazol-2-thione]
10 | 909 | 55 | > 50000 | CN1CCC(c2cccc(-c3nn(Cc4ccc(-c5nnc(C(F)F)o5)cn4)c(=O)s3)c2F)CC1 [Compound 41, 3-[[5-[5-(difluoromethyl)-1,3,4-oxadiazol-2-yl]-2-pyridyl]methyl]-5-[2-fluoro-3-(1-methyl-4-piperidyl)phenyl]-1,3,4-thiadiazol-2-one]
11 | 583 | 85.7 | > 50000 | CN(C)Cc1ccc(-c2nn(Cc3ncc(-c4nnc(C(F)F)o4)cc3F)c(=S)o2)s1 [Compound 128, 3-[[5-[5-(difluoromethyl)-1,3,4-oxadiazol-2-yl]-3-fluoro-2-pyridyl]methyl]-5-[5-[(dimethylamino)methyl]-2-thienyl]-1,3,4-oxadiazol-2-thione]
12 | 919 | 54.4 | > 50000 | Fc1cc(-c2nnc(C(F)F)o2)cnc1Cn1nc(-c2ccc(CN3CC(F)C3)cc2)oc1=S [Compound 110, 3-[[5-[5-(difluoromethyl)-1,3,4-oxadiazol-2-yl]-3-fluoro-2-pyridyl]methyl]-5-[4-[(3-fluoroazetidine-1-yl)methyl]phenyl]-1,3,4-oxadiazol-2-thione]
13 | 460 | 109 | > 50000 | O=C1OCC(c2cccs2)=NN1Cc1ncc(-c2nnc(C(F)F)o2)cc1F [Compound 70, 3-[[5-[5-(difluoromethyl)-1,3,4-oxadiazol-2-yl]-3-fluoro-2-pyridyl]methyl]-5-(2-thienyl)-6H-1,3,4-oxadiazin-2-one]
14 | 745 | 67.1 | > 50000 | CN1CCC(c2ccc(-c3nn(Cc4ccc(-c5nnc(C(F)F)o5)cn4)c(=O)o3)cc2)CC1 [Compound 29, 3-[[5-[5-(difluoromethyl)-1,3,4-oxadiazol-2-yl]-2-pyridyl]methyl]-5-[4-(1-methyl-4-piperidyl)phenyl]-1,3,4-oxadiazol-2-one]
15 | 549 | 91 | > 50000 | CC1CCN(Cc2ccc(-c3nn(Cc4ncc(-c5nnc(C(F)F)o5)cc4F)c(=S)o3)cc2)CC1 [Compound 111, 3-[[5-[5-(difluoromethyl)-1,3,4-oxadiazol-2-yl]-3-fluoro-2-pyridyl]methyl]-5-[4-[(4-methyl-1-piperidyl)methyl]phenyl]-1,3,4-oxadiazol-2-thione]
16 | 444 | 113 | > 50000 | O=c1sc(-c2ccccc2F)nn1Cc1ccc(-c2nnc(C(F)F)o2)cn1 [Compound 54, 3-[[5-[5-(difluoromethyl)-1,3,4-oxadiazol-2-yl]-2-pyridyl]methyl]-5-(2-fluorophenyl)-1,3,4-thiadiazol-2-one]
17 | 601 | 83.2 | > 50000 | Fc1cc(-c2nnc(C(F)F)o2)cnc1Cn1nc(-c2cccs2)oc1=S [Compound 51, 3-[[5-[5-(difluoromethyl)-1,3,4-oxadiazol-2-yl]-3-fluoro-2-pyridyl]methyl]-5-(2-thienyl)-1,3,4-oxadiazol-2-thione]
18 | 1114 | 44.9 | > 50000 | CCN1CCc2cc(-c3nn(Cc4ccc(-c5nnc(C(F)F)o5)cn4)c(=S)o3)sc2C1 [Compound 140, 3-[[5-[5-(difluoromethyl)-1,3,4-oxadiazol-2-yl]-2-pyridyl]methyl]-5-(6-ethyl-5,7-dihydro-4H-thieno[2,3-c]pyridin-2-yl)-1,3,4-oxadiazol-2-thione]
19 | 543 | 92 | > 50000 | FC(F)c1nnc(-c2ccc(Cn3nc(-c4ccccc4)oc3=S)nc2)o1 [Compound 45, 3-((5-(5-(difluoromethyl)-1,3,4-oxadiazol-2-yl)pyridin-2-yl)methyl)-5-phenyl-1,3,4-oxadiazol-2(3H)-thione]
